# Like-named read-outs stand apart in the source and are kept apart here.
# How the values were obtained:
# [1] = tested on: human LOX-IMVI melanoma cell xenografts; assay: Assessment of survival (increased life span) in mice with human LOX-IMVI melanoma xenografts; type: in vivo; conditions: monotherapy; for 50% Treatment Days (median survival day of treated group): 50% vehicle days 14; for % ILS (increased life span): versus vehicle group
# Protocol: (§1) Mice were implanted with human LOX-IMVI melanoma cell xenografts. The mice, cell line used, and implantation are described below.
# (§2) Female athymic Crl:NU-Foxn1nu mice were used for efficacy testing (Charles River, Wilmington, Mass., USA). Mice were 10-12 weeks of age and weighed 23-25 grams. The health of the mice was assessed daily by observation and analysis of blood samples taken from sentinel animals on shared shelf racks. All animals were allowed to acclimate and recover from shipping-related stress for one week. Autoclaved water and irradiated food (5058-ms Pico Lab mouse chow, Purina Mills, Richmond, Ind., USA) were provided ad libitum, and the animals were kept in a 12 hour light and dark cycle. Cages, bedding and water bottles were autoclaved before use and changed weekly. All animal experiments were conducted in accordance with the Guide for the Care and Use of Laboratory Animals, local regulations, and protocols approved by the Roche Animal Care and Use Committee in our AAALAC accredited facility.
# (§3) LOX-IMVI cells (aka LOX, National Cancer Institute—Bethesda, Md.) were grown in RPMI-1640 medium supplemented with 10% Fetal Bovine Serum (FBS) and 1% of […] L-glutamine, scaled up, harvested, and prepared so that each mouse received 2×10^6 cells/0.2 ml calcium and magnesium free phosphate-buffered saline (PBS). Cells were implanted in the subcutaneous right flank of each mouse.
# (§4) Mice implanted with human xenografts were randomized into eight groups of 10 mice each according to tumor volume so that all groups had similar starting mean tumor volumes. The approximate starting mean tumor volume for this study was 130 mm^3.
# (§5) Treatment began on day 5 post-cell implant and ended at day 18 post-cell implant. Four groups of mice developed in example 3 were used. Each group was subjected to a different therapy as follows: • (1) mice receiving Compound I vehicle bid po and peginterferon alfa-2a vehicle 1×/wk sc; • (2) mice receiving Compound I at 75 mg/kg bid bid po; • (3) mice receiving peginterferon alfa-2a at 900 μg 1×/wk sc; and • (4) mice receiving Compound I at 75 mg/kg bid bid po and peginterferon alfa-2a at 900 μg 1×/wk sc.
# (§6) The Compound I suspension and its corresponding vehicle were dosed using a sterile 1 cc syringe and 18-gauge gavage needle (0.2 ml/animal) twice daily. The peginterferon alfa-2a solution and its corresponding vehicle were dosed using a sterile 1 cc syringe and 26-gauge needle (0.2 ml/animal) once weekly on days 5 and 12 post-cell implant for a total of two injections.
# For survival assessment, the percent of increased life space (ILS) was calculated as: 100×[(median survival day of treated group−median survival day of control group)/median survival day of control group]. Median survival was determined utilizing Kaplan Meier survival analysis. Survival in treated groups was statistically compared with the vehicle group and survival comparisons were done between groups using the log-rank test (Graph Pad Prism, La Jolla, Calif., USA). Differences between groups were considered significant when the probability value (p) was ≦0.05.
# Treatment began on day 6 post-cell implant and ended at day 19 post-cell implant. Four groups of mice developed in example 3 were used. The treatment groups were as follows: • (1) mice receiving Compound I vehicle bid po and peginterferon alfa-2a vehicle 1×/wk sc; • (2) mice receiving Compound I at 25 mg/kg bid po; • (3) mice receiving peginterferon alfa-2a at 450 μg 1×/wk sc; and • (4) mice receiving Compound I at 25 mg/kg bid and peginterferon alfa-2a at 450 μg 1×/wk.
# as §6, with “6” for “5”, “13” for “12”
# [2] = tested on: human LOX-IMVI melanoma cell xenografts; assay: Tumor growth inhibition in mice with human LOX-IMVI melanoma xenografts; type: in vivo; conditions: monotherapy; for % Inhibition end of study Day: 19 / % T/C end of study Day: 19 / Average % Regression per Group / Mean Tumor Volume End Study DAY: 19 / % Inhibition end of study Day: 18 / % T/C end of study Day: 18 / Mean Tumor Volume End Study DAY: 18 / % Tumor Growth Inhibition: 10 mice; for Complete Regression / Partial Regression: animals out of 10 per group
# Protocol: as §1, §2, §3, §4, §5, §6
# Tumor measurements were taken once or twice per week. All animals were individually followed throughout the experiment.
# Efficacy data was graphically represented as the mean tumor volume±standard error of the mean (SEM). In addition, tumor volumes of treated groups were presented as percentages of tumor volumes of the control groups (% T/C), using the formula: 100×((T−T0)/(C−C0)), where T represented mean tumor volume of a treated group on a specific day during the experiment, T0 represented mean tumor volume of the […] on the first day of treatment; C represented mean tumor volume of a control group on the specific day during the experiment, and Co represented mean tumor volume of the […] on the first day of treatment.
# Tumor volume (in cubic millimeters) was calculated using the ellipsoid formula: (D×(d^2))/2, where “D” represents the large diameter of the tumor and “d” represents the small diameter.
# Also, tumor regression and/or percent change in tumor volume was calculated using the formula: ((T−T0)/T0)×100, where ‘T’ represents mean tumor volume of the treated group at a particular day, and ‘T0’ represents mean tumor volume of the same treated group at initiation of treatment.
# Statistical analysis was determined by the rank sum test and One Way Anova and a post-hoc Bonferroni t-test (SigmaStat, version 2.0, Jandel Scientific, San Francisco, Calif., USA). […]
# [3] = type: in vivo; conditions: monotherapy, 10 mice
# Protocol: as §2, with “Autoclaved water and irradiated food (5058-ms Pico Lab mouse chow, Purina Mills, Richmond, Ind., USA) were provided ad libitum, and the animals were kept in a 12 hour light and dark cycle.” left out
# Treatment began on day 5 post-cell implant and ended at day 18 post-cell implant.
# The peginterferon alfa-2a solution and its corresponding vehicle were dosed using a sterile 1 cc syringe and 26-gauge needle (0.2 ml/animal) once weekly on days 5 and 12 post-cell implant for a total of two injections.
# Weight loss was graphically represented as percent change in mean group body weight, using the formula: ((W−W0)/W0)×100, where ‘W’ represents mean body weight of the treated group at a particular day, and ‘W0’ represents mean body weight of the same treated group at initiation of treatment.
# Treatment began on day 6 post-cell implant and ended at day 19 post-cell implant.
# The peginterferon alfa-2a solution and its corresponding vehicle were dosed using a sterile 1 cc syringe and 26-gauge needle (0.2 ml/animal) once weekly on days 6 and 13 post-cell implant for a total of two injections.
# [4] = Compound I 25 mg/kg bid po, days 6-19 post-cell implant
# [5] = Compound I 75 mg/kg bid po, days 5-18 post-cell implant
# [6] = peginterferon alfa-2a 450 μg 1×/wk sc (days 6 and 13)
# [7] = peginterferon alfa-2a 900 μg 1×/wk sc (days 5 and 12)
compound,measurement,setting,value
"CCCS(=O)(=O)Nc1ccc(F)c(C(=O)c2c[nH]c3ncc(-c4ccc(Cl)cc4)cc23)c1F [Compound I, Propane-1-sulfonic acid{3-[5-(4-chloro-phenyl)-1H-pyrrolo[2,3-b]pyridine-3-carbonyl]-2,4-difluoro-phenyl}-amide]",50% Treatment Days (median survival day of treated group),[1]; [4],59 days
same,% ILS (increased life span),[1]; [4],321%
same,50% Treatment Days (median survival day of treated group),[1]; [5],504 days
same,% ILS (increased life span),[1]; [5],3500%
same,% Inhibition end of study Day: 19,[2]; [4],regression
same,% T/C end of study Day: 19,[2]; [4],−5%
same,Average % Regression per Group,[2]; [4],100%
same,Mean Tumor Volume End Study DAY: 19,[2]; [4],0.00 mm^3
same,Complete Regression,[2]; [4],10
same,Partial Regression,[2]; [4],0
same,% Inhibition end of study Day: 18,[2]; [5],regression
same,% T/C end of study Day: 18,[2]; [5],−4%
same,Average % Regression per Group,[2]; [5],100%
same,Mean Tumor Volume End Study DAY: 18,[2]; [5],0.00 mm^3
same,Complete Regression,[2]; [5],10
same,Partial Regression,[2]; [5],0
same,# animals ≧ 20% BWL,[3]; [4],0
same,% Change in Body Weight at end of Study Day 19,[3]; [4],1.3%
same,Max % Weight Gain,[3]; [4],1.3%
same,Max % Weight Loss,[3]; [4],−1.0%
same,Mortality,[3]; [4],0
same,# animals ≧ 20% BWL,[3]; [5],0
same,% Change in Body Weight at end of Study Day 18,[3]; [5],−7.0%
same,Max % Weight Gain,[3]; [5],−3.6%
same,Max % Weight Loss,[3]; [5],−7.0%
same,Mortality,[3]; [5],0
Peginterferon alfa-2a,50% Treatment Days (median survival day of treated group),[1]; [6],30 days
same,% ILS (increased life span),[1]; [6],114%
same,50% Treatment Days (median survival day of treated group),[1]; [7],34 days
same,% ILS (increased life span),[1]; [7],143%
same,% Inhibition end of study Day: 19,[2]; [6],regression
same,% T/C end of study Day: 19,[2]; [6],0%
same,% Tumor Growth Inhibition,[2]; [6],>100%
same,Average % Regression per Group,[2]; [6],6%
same,Mean Tumor Volume End Study DAY: 19,[2]; [6],122.93 mm^3
same,Complete Regression,[2]; [6],1
same,Partial Regression,[2]; [6],6
same,% Inhibition end of study Day: 18,[2]; [7],98%
same,% T/C end of study Day: 18,[2]; [7],2%
same,% Tumor Growth Inhibition,[2]; [7],98%
same,Mean Tumor Volume End Study DAY: 18,[2]; [7],193.98 mm^3
same,Complete Regression,[2]; [7],3
same,Partial Regression,[2]; [7],2
same,# animals ≧ 20% BWL,[3]; [6],0
same,% Change in Body Weight at end of Study Day 19,[3]; [6],8.1%
same,Max % Weight Gain,[3]; [6],8.1%
same,Max % Weight Loss,[3]; [6],3.7%
same,Mortality,[3]; [6],0
same,# animals ≧ 20% BWL,[3]; [7],0
same,% Change in Body Weight at end of Study Day 18,[3]; [7],2.7%
same,Max % Weight Gain,[3]; [7],2.7%
same,Max % Weight Loss,[3]; [7],0.7%
same,Mortality,[3]; [7],0
